According to patent US20240199648A1, “MAP4K1 INHIBITORS” (Blueprint Medicines Corporation, priority 2021, published 2024):

Legend:
Primary T Cell = assay: T cell enhancement of cytokines: IL2 measurement (HTRF) in expanded CD3+ T cells stimulated with anti-CD3/anti-CD28; assay type: cell-based, human; settings: Homo sapiens, T-cell, 24 h, plate-bound anti-CD3 and soluble anti-CD28, 24 h, read-out: IL-2 Primary T Cell EC50
Experimental: T cells are isolated from whole blood of healthy donors by immunomagnetic negative selection following manufacture's protocol (StemCell Technologies, human T cell isolation kit). Purity of isolated cells is assessed by flow cytometry and yields 95-98% CD3^+ T cells. For expansion of T cells, 1×10^6 cells/well are plated in serum free cell expansion media (ThermoFisher) containing 30U of recombinant human IL2 (R&D) and stimulated with 25 ul of CD3/CD28 beads (Invitrogen) in 24 well plates for 3-4 days. T cells are then expanded in 175 cm flasks and maintained at a cell density of 1 to 2.5×10^6 cells/ml days by addition of ⅔ of fresh media every 2-3 days. After 10-14 days, cells are frozen in BamBanker freezing media (Thermo) and stored in liquid nitrogen.
For IL2 measurement, expanded CD3+ T cells are dispensed at 100K cells/well (cultured in X-VIVO 10 Serum-free media) and are stimulated with plate-bound anti-CD3 and soluble anti-CD28 in the presence of vehicle or compound of the disclosure at various concentrations for 24 h. As outlined in the manufacturer's protocol (Cisbio), 16 μL of conditioned media is transferred to a white 384-well low volume plate. Following a 24 h incubation with the anti-IL2 antibodies, the homogenous time resolved fluorescence (HTRF) is measured.

MAP4K1 (HPK1) = target: T1, MAP4K1 (HPK1) (Homo sapiens, UniProt Q92918); assay: Inhibition of MAP4K1 biochemical enzymatic activity (EZReader 2 electrophoretic mobility shift assay); settings: HPK1 (Invitrogen), S6K2tide 1.5 μM, 120 min; ATP 26 μM or 1000 μM (not stated which)
T1 construct: purchased Invitrogen
T1 sequence (Q92918 whole entry): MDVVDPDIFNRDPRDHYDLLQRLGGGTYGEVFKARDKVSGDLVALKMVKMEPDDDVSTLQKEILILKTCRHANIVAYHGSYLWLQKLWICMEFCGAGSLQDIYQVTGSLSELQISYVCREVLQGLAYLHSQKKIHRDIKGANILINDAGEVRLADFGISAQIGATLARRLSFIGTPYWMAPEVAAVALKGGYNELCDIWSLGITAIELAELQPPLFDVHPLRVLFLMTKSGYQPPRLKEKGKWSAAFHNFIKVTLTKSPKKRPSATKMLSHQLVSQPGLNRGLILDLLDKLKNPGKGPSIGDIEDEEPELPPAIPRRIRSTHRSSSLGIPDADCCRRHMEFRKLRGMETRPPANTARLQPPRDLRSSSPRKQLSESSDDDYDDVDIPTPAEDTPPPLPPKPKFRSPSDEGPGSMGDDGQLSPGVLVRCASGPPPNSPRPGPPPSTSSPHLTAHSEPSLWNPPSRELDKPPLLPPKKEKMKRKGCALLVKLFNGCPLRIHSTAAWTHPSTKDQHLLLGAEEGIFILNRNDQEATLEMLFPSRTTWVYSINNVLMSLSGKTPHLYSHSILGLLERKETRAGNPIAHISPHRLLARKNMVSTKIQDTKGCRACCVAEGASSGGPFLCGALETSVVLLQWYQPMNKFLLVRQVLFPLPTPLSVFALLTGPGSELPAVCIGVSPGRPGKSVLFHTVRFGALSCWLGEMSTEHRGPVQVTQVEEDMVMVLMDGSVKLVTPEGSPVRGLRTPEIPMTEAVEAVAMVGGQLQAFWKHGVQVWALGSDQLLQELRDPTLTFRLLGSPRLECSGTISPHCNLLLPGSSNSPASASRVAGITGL
In short: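 Mobility-shift assay: 0.1-15 nM enzyme, 1.5 μM fluorescent peptide, 20-1000 μM ATP (apparent Km or 1 mM) in HEPES pH 7.5, MgCl2, DTT, Brij 35; 60-180 min at 25° C, 1% DMSO. Ten-point 4-fold compound series in duplicate; EDTA-stopped, product/substrate peak ratio read.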

Row | SMILES | EC50 (Primary T Cell) [nM] | IC50 (MAP4K1 (HPK1)) [nM]
1 | C[C@@H]1c2nc(Nc3cc4c(C(C)(C)N)cnc(O[C@H]5C[C@@H](C(=O)N6CC(F)(F)C6)C5)c4cn3)ccc2C(=O)OC1(C)C [Compound 100] | 22.1 | 0.11
2 | C[C@@H]1c2nc(Nc3cc4c(C(C)(C)N)cnc(OC5CN(C(=O)N6CC(F)(F)C6)C5)c4cn3)ccc2C(=O)OC1(C)C [Compound 101] | 17.8 | 0.13
3 | C[C@@H]1OC(=O)c2ccc(Nc3cc4c(C(C)(C)N)cnc(OC5CN(C(=O)C6(C(F)(F)F)CC6)C5)c4cn3)nc2[C@H]1C [Compound 102] | 24 | 0.12
4 | CC[C@@](C)(N)c1cnc(OC2CN(C(C)=O)C2)c2cnc(Nc3ccc4c(n3)C(C)(C)COC4=O)cc12 [Compound 111] | 9.6 | 0.43
5 | CCC(=O)N1C[C@@H](Oc2ncc(C(C)(C)N)c3cc(Nc4ccc5c(n4)[C@@H](C)C(C)(C)OC5=O)ncc23)[C@@H]1C [Compound 118] | 17.7 | 0.17
6 | COC[C@@](C)(N)c1cnc(O[C@@H]2CN(C(C)=O)[C@H]2C)c2cnc(Nc3ccc4c(n3)[C@@H](C)[C@H](C)OC4=O)cc12 [Compound 119] | 90 | 0.2
7 | CCC(=O)N1CC(Oc2ncc([C@](C)(N)COC)c3cc(Nc4ccc5c(n4)[C@@H](C)[C@H](C)OC5=O)ncc23)C1 [Compound 120] | 29.4 | 0.25
8 | COC[C@@](C)(N)c1cnc(OC2CN(C(=O)OC)C2)c2cnc(Nc3ccc4c(n3)[C@@H](C)[C@H](C)OC4=O)cc12 [Compound 121] | 41.5 | 0.2
9 | COC[C@@](C)(N)c1cnc(OC2CN(C(C)=O)[C@H]2C)c2cnc(Nc3ccc4c(n3)[C@@H](C)C(C)(C)OC4=O)cc12 (stereo partly shown) [Compound 122] | 53.7 | 0.12
10 | CCC(=O)N1CC(Oc2ncc([C@](C)(N)COC)c3cc(Nc4ccc5c(n4)[C@@H](C)C(C)(C)OC5=O)ncc23)C1 [Compound 123] | 60.8 | 0.1
11 | COC[C@@](C)(N)c1cnc(OC2CN(C(=O)OC)C2)c2cnc(Nc3ccc4c(n3)[C@@H](C)C(C)(C)OC4=O)cc12 [Compound 125] | 130 | 0.17
